# Test results: patent US12617779B2, “Self degradation-type CDK9 inhibitor prodrug and liposome encapsulating same” (Sumitomo Pharma Co., Ltd., priority 2021, dated 2026)
# How the values were obtained:
# [1] = Evaluation of conversion rate to active form in buffer solution (Experimental Example 1); assay type: physicochemical
# Outline: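 Conversion to Alvocidib was followed by HPLC over 3 hours at 37° C, with test compounds at 25 umol/L in 50 mM citrate or phosphate buffers spanning pH 5.0–7.4.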
# [2] = Evaluation of conversion rate to active form in human plasma (Experimental Example 3); assay type: in vitro ADME; conditions: human, 0.2 μmol/L
# Outline: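 Test compound at 0.2 μmol/L was incubated at 37° C in human or BALB/c mouse plasma and sampled at 0, 30 and 60 min or at 0, 60 and 120 min. Compound and Alvocidib were quantified by LC-MS/MS peak area. Attrition is relative to 0 min; conversion is relative to 0.2 μmol/L Alvocidib reference.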
structure (smiles),measurement,setting,value
"CN1CC[C@H](c2c(O)cc(O)c3c(=O)cc(-c4ccccc4Cl)oc23)[C@H](OC(=O)[C@@H](N)CO)C1 [Comparative Example 9, reference compound]",Production rate of Alvocidib,"[1]; pH5.0, 0 hr",5.0%
same,Residual rate,"[1]; pH5.0, 0 hr",85.7%
same,Stability in buffer solution at pH 5,"[1]; pH 5, 37° C., up to 2 or 3 hours",unstable
same,Production rate of Alvocidib,"[1]; pH5.0, 0.5 hr",7.1%
same,Residual rate,"[1]; pH5.0, 0.5 hr",84.0%
same,Production rate of Alvocidib,"[1]; pH5.0, 1 hr",8.7%
same,Residual rate,"[1]; pH5.0, 1 hr",82.6%
same,Production rate of Alvocidib,"[1]; pH5.0, 2 hr",12.8%
same,Residual rate,"[1]; pH5.0, 2 hr",79.4%
same,Production rate of Alvocidib,"[1]; pH5.0, 3 hr",15.6%
same,Residual rate,"[1]; pH5.0, 3 hr",77.0%
same,Production rate of Alvocidib,"[1]; pH5.5, 0 hr",4.9%
same,Residual rate,"[1]; pH5.5, 0 hr",86.0%
same,Production rate of Alvocidib,"[1]; pH5.5, 0.5 hr",8.5%
same,Residual rate,"[1]; pH5.5, 0.5 hr",83.3%
same,Production rate of Alvocidib,"[1]; pH5.5, 1 hr",11.3%
same,Residual rate,"[1]; pH5.5, 1 hr",81.1%
same,Production rate of Alvocidib,"[1]; pH5.5, 2 hr",17.7%
same,Residual rate,"[1]; pH5.5, 2 hr",78.4%
same,Production rate of Alvocidib,"[1]; pH5.5, 3 hr",22.4%
same,Residual rate,"[1]; pH5.5, 3 hr",74.2%
same,Production rate of Alvocidib,"[1]; pH6.0, 0 hr",5.0%
same,Residual rate,"[1]; pH6.0, 0 hr",86.0%
same,Production rate of Alvocidib,"[1]; pH6.0, 0.5 hr",17.1%
same,Residual rate,"[1]; pH6.0, 0.5 hr",76.5%
same,Production rate of Alvocidib,"[1]; pH6.0, 1 hr",26.0%
same,Residual rate,"[1]; pH6.0, 1 hr",69.2%
same,Production rate of Alvocidib,"[1]; pH6.0, 2 hr",43.4%
same,Residual rate,"[1]; pH6.0, 2 hr",53.9%
same,Production rate of Alvocidib,"[1]; pH6.0, 3 hr",54.0%
same,Residual rate,"[1]; pH6.0, 3 hr",44.3%
same,Production rate of Alvocidib,"[1]; pH6.5, 0 hr",5.1%
same,Residual rate,"[1]; pH6.5, 0 hr",86.0%
same,Production rate of Alvocidib,"[1]; pH6.5, 0.5 hr",20.9%
same,Residual rate,"[1]; pH6.5, 0.5 hr",74.7%
same,Production rate of Alvocidib,"[1]; pH6.5, 1 hr",31.1%
same,Residual rate,"[1]; pH6.5, 1 hr",66.2%
same,Production rate of Alvocidib,"[1]; pH6.5, 2 hr",49.6%
same,Residual rate,"[1]; pH6.5, 2 hr",49.4%
same,Production rate of Alvocidib,"[1]; pH6.5, 3 hr",60.2%
same,Residual rate,"[1]; pH6.5, 3 hr",39.1%
same,Production rate of Alvocidib,"[1]; pH7.0, 0 hr",5.3%
same,Residual rate,"[1]; pH7.0, 0 hr",85.9%
same,Production rate of Alvocidib,"[1]; pH7.0, 0.5 hr",21.7%
same,Residual rate,"[1]; pH7.0, 0.5 hr",75.8%
same,Production rate of Alvocidib,"[1]; pH7.0, 1 hr",30.7%
same,Residual rate,"[1]; pH7.0, 1 hr",68.1%
same,Production rate of Alvocidib,"[1]; pH7.0, 2 hr",47.2%
same,Residual rate,"[1]; pH7.0, 2 hr",52.8%
same,Production rate of Alvocidib,"[1]; pH7.0, 3 hr",57.1%
same,Residual rate,"[1]; pH7.0, 3 hr",42.9%
same,Production rate of Alvocidib,"[1]; pH7.4, 0 hr",5.6%
same,Residual rate,"[1]; pH7.4, 0 hr",85.3%
same,Production rate of Alvocidib,"[1]; pH7.4, 0.5 hr",22.1%
same,Residual rate,"[1]; pH7.4, 0.5 hr",76.2%
same,Production rate of Alvocidib,"[1]; pH7.4, 1 hr",29.7%
same,Residual rate,"[1]; pH7.4, 1 hr",70.3%
same,Production rate of Alvocidib,"[1]; pH7.4, 2 hr",44.0%
same,Residual rate,"[1]; pH7.4, 2 hr",56.0%
same,Production rate of Alvocidib,"[1]; pH7.4, 3 hr",53.3%
same,Residual rate,"[1]; pH7.4, 3 hr",46.7%
same,Production rate (%) of Alvocidib,[2]; 0 min,3%
same,Residual rate (%) of test compound,[2]; 0 min,100%
same,Production rate (%) of Alvocidib,[2]; 60 min,18%
same,Residual rate (%) of test compound,[2]; 60 min,85%
same,Production rate (%) of Alvocidib,[2]; 120 min,25%
same,Residual rate (%) of test compound,[2]; 120 min,80%
